Experimental data published in US5534522A, “(R)-(Z)-1-azabicyclo [2.2.1] heptan-3-one,O-[3-(3-methoxyphenyl)-2-propynyl] oxime maleate as a pharmaceutical agent” (Warner-Lambert Company, priority 1995, dated 1996).
Counter-ions that a name gives are not always drawn. Like-named read-outs stand apart in the source and are kept apart here.

Columns and labels:
[1] = Evaluation of acid addition salts (ease of formation and crystallinity); assay type: physicochemical; conditions: for Overall Salt Rating: based on ease of formation and crystallinity, salt of 1a (free base treated with acid); for isomer formation on recrystallization (words): EtOAc in Table III
Method: Many counter-ions were evaluated for salt-forming properties. The data presented in Table III answer the following questions: (1) did a solid salt precipitate from ether when free base 1a was treated with each acid?; (2) following collection of the salt by either filtration or evaporation of the ether, what solvents were used to crystallize the salt, and was a crystalline salt obtained from each solvent?; (3) melting point information; and (4) overall rating of each salt, based on considerations of ease of formation and crystallinity.

[2] = target: rat cerebral cortex muscarinic receptors; assay: Muscarinic receptor binding, CMD (cis-methyldioxolane) agonist radioligand; conditions: for IC50: Table I
[3] = target: rat cerebral cortex muscarinic receptors; conditions: Table I; read-out: QNB Binding IC50
[4] = Aqueous solubility of crystalline salts of 1a; assay type: physicochemical; conditions: for solubility: water, room temp.
[5] = Stability of crystalline salts of 1a under accelerated stability conditions; assay type: physicochemical
Text: Maleate and benzoate salts were recrystallized from ethyl acetate and t-butyl methyl ether, respectively. Xenon exposure with the Atlas SunChex set for 0.4±0.1 watts/m^2. Fluorescent exposure with 1000-±100-ft candles.

[6] = tested on: rat cerebral cortex muscarinic receptors; conditions: earlier publications, cited from earlier work
[7] = tested on: m1-subtype muscarinic receptors; conditions: cited from earlier work
[8] = Refrigerated storage stability of free base; assay type: physicochemical; conditions: refrigerated at -4° C., up to several days
[9] = Hygroscopicity of salts of Compound 1a; assay type: physicochemical; conditions: for Hygroscopicity (% wt increase): RT, 81% RH for 16 days, crimped DSC pans; for moisture uptake / hygroscopicity in words: salts of Table IV
[10] = tested on: hippocampally deficient mice; assay type: in vivo, mouse
Text: This test measures the ability of a compound to decrease the amount of time needed by the mice to find a hidden platform in the water pool.
The graph represents two sets of experiments, each one with its own control group.

[11] = Xenon, 26 hours, 0.4±0.1 watts/m^2
[12] = 1a versus isomer 1b, Tables II and III of Jaen reference

For `CCCC(=O)O.COc1cccc(C#CCON=C2CN3CCC2C3)c1` (centres unmarked), the “Overall Salt Rating” value [1] was “Low”.
`COc1cccc(C#CCO/N=C2/CN3CCC2C3)c1` (centres unmarked) [(1c + 1d)] showed an IC50 [2] of 150 nM and an IC50 [3] of 14800 nM.
In the case of `COc1cccc(C#CCO/N=C2\CN3CC[C@@H]2C3)c1` [Acetate], the “Overall Salt Rating” value [1] is reported as “Low”.
For `COc1cccc(C#CCO/N=C2\CN3CC[C@@H]2C3)c1` [Benzene Sulfonae Sulphonate], the “Overall Salt Rating” value [1] was “Low”.
With `COc1cccc(C#CCO/N=C2\CN3CC[C@@H]2C3)c1` [Benzoate] the solubility [4] was 6 mg/mL, the “Overall Salt Rating” value [1] was “High” and the stability in words ([5]; 25° C./60% RH and 30° C./60% RH) was “stable”. The “Stability: presence of 1c” value ([5]; 30° C./60% RH, 2 weeks) was “.largecircle” and the “Stability to light: presence of 1c” value [5, 11] was “E (presence of 2%-4% 1c)”.
In the case of `COc1cccc(C#CCON=C2CN3CCC2C3)c1` (centres unmarked) [Compound 1], the “affinity to rat cerebral cortex muscarinic receptors” value ([6]; rat cerebral cortex) is listed as “high affinity”, the “ability to displace agonist radioligand (cis-methyldioxolane) at lower concentrations than those required to displace antagonist radioligand (quinuclidinyl benzilate)” value ([6]; ratio QNB/CMD) is listed as 246 times and the “selective stimulation of m1-subtype muscarinic receptors” value ([7]; versus other non-m1 muscarinic receptors, earlier publications) is listed as “selectively stimulate m1-subtype muscarinic receptors without significant stimulation of other non-m1 muscarinic receptors”.
With `COc1cccc(C#CCO/N=C2\CN3CC[C@@H]2C3)c1` [Compound 1a, [R-(Z)]-1-azabicyclo [2.2.1]heptan-3-one, O-[3-(3-methoxyphenyl)-2-propynyl]oxime] the “decomposition or isomerization to 1c on storage” value [8] was “without noticeable decomposition or isomerization to produce 1c”, the “potency and efficacy as a muscarinic agonist (ratio of QNB to CMD binding)” value ([2]; 1a versus mixture of 1c/1d) was “more potent and more efficacious as a muscarinic agonist” and the IC50 [2] was 25 nM. The IC50 [3] was 5300 nM, the m1 potency [7, 12] was “greater m1 potency than isomer 1b” and the “m1 receptor subtype selectivity” value [7, 12] was “greater m1 receptor subtype selectivity”.
In the case of `COc1cccc(C#CCO/N=C2\CN3CC[C@H]2C3)c1` [Compound 1b], the muscarinic agonist activity ([7]; isomer 1b, could be due to small amounts of 1a) is listed as “small amount of activity”.
In the case of `COc1cccc(C#CCO/N=C2\CN3CC[C@@H]2C3)c1` [Fumarate (0.5 epui)], the “Overall Salt Rating” value [1] is reported as “Medium”.
With `COc1cccc(C#CCO/N=C2\CN3CC[C@@H]2C3)c1` [Fumarate (1 equi)] the “Overall Salt Rating” value [1] was “Low”.
With `COc1cccc(C#CCO/N=C2\CN3CC[C@@H]2C3)c1` [Hydrobromide] the “Overall Salt Rating” value [1] was “Low” and the “hygroscopicity of precipitated salt” value ([1]; precipitation from Et2O) was “very hygroscopic”.
With `COc1cccc(C#CCO/N=C2\CN3CC[C@@H]2C3)c1` [Hydrochloride] the “Overall Salt Rating” value [1] was “High”, the “isomer formation on recrystallization (words)” value [1] was “E-Isomer Formation” and the “isomer formation on recrystallization (words)” value ([1]; listed as hydrochloride) was “difficult to recrystallize without converting 1a to 1c”. The “Hygroscopicity (% wt increase)” value [9] was 27.77 ± 0.40 % wt, the “moisture uptake / hygroscopicity in words” value ([9]; listed as HCl salt) was “took up water most rapidly and to the greatest extent” and the “moisture uptake / hygroscopicity in words” value ([9]; listed as hydrochloride salt) was “extremely hygroscopic”.
With `COc1cccc(C#CCO/N=C2\CN3CC[C@@H]2C3)c1` [L(+)-Lactate] the “Overall Salt Rating” value [1] was “Low”.
With `COc1cccc(C#CCO/N=C2\CN3CC[C@@H]2C3)c1` [Malate] the “Overall Salt Rating” value [1] was “Low”.
In the case of `COc1cccc(C#CCO/N=C2\CN3CC[C@@H]2C3)c1` [Maleate, (R)-(Z)-1-azabicyclo[2.2.1]heptan-3-one,O-[3-(3-methoxyphenyl)-2-propynyl]oxime, (Z)-butenedioic acid, [1:1 salt]], the “solubility in water relative to 1a benzoate” value ([4]; 1a maleate versus 1a benzoate) is reported as “about 15 times”, the solubility [4] is reported as 89 mg/mL and the “Stability to light: presence of 1c” value ([5]; Fluorescence, 5.5 months, 1000-±100-ft candles) is reported as “.largecircle”. The “Stability to light: presence of 1c” value [5, 11] was “.largecircle”, the “Hygroscopicity (% wt increase)” value [9] was 0.32 ± 0.02 % wt and the “moisture uptake / hygroscopicity in words” value [9] was “the least”. The latency improvement ([10]; 1 mg/kg, separate set of experiments (maleate)) was “about 20 seconds” and the “biological activity compared to other salts” value ([10]; water maze) was “no loss of biological activity”.
In the case of `COc1cccc(C#CCO/N=C2\CN3CC[C@@H]2C3)c1` [Oxalate], the “Hygroscopicity (% wt increase)” value [9] is reported as 6.38 ± 1.40 % wt, the “moisture uptake / hygroscopicity in words” value ([9]; listed as oxalate salt) is reported as “less hygroscopic than the hydrochloride” and the “reduction of time required to find the platform” value ([10]; 1 mg/kg, first set of experiments (oxalate)) is reported as “about 18 seconds”.
With `COc1cccc(C#CCO/N=C2\CN3CC[C@@H]2C3)c1` [Stearate] the “Overall Salt Rating” value [1] was “Low”.
With `COc1cccc(C#CCO/N=C2\CN3CC[C@@H]2C3)c1` [Succinate] the “Overall Salt Rating” value [1] was “Low”.
In the case of `COc1cccc(C#CCO/N=C2\CN3CC[C@@H]2C3)c1` [Tartrate (D)-(-) (0.5 equi)], the “Overall Salt Rating” value [1] is reported as “Low”.
In the case of `COc1cccc(C#CCO/N=C2\CN3CC[C@@H]2C3)c1` [Tartrate (D)-(-) (1 equi)], the “Overall Salt Rating” value [1] is reported as “Low”.
With `COc1cccc(C#CCO/N=C2\CN3CC[C@@H]2C3)c1` [Tartrate (L)-(+) (0.5 equi)] the “Overall Salt Rating” value [1] was “Low”.
In the case of `COc1cccc(C#CCO/N=C2\CN3CC[C@@H]2C3)c1` [Tartrate (L)-(+) (1 equi)], the “Overall Salt Rating” value [1] is reported as “Low”.
With `COc1cccc(C#CCO/N=C2\CN3CC[C@@H]2C3)c1` [ether-precipitated product] the “physical state under accelerated stability condition” value ([5]; 2 weeks, 40° C./75% RH) was “deliquescent”.
In the case of `COc1cccc(C#CCO/N=C2\CN3CC[C@@H]2C3)c1` [ethyl acetate recrystallized maleate salt], the “stability compared with ether-precipitated product” value ([5]; ethyl acetate recrystallized versus ether-precipitated) is reported as “more stable”.
In the case of `Nc1c2c(nc3ccccc13)CCCC2` [tacrine, reference compound], the “latency improvement, tacrine control group” value ([10]; tacrine in the maleate set of experiments) is reported as 24 s and the “improvement of time to find the platform, positive control” value ([10]; tacrine in the oxalate set of experiments) is reported as roughly 27 s.
